These are literature values, as cited in patent publication US8647676B2, “Antimicrobial composition from copepods” (priority 2008, dated 2014).

For the data set the following is noted: Iwamoto et al. Tetrahedron, 1999 vol. 55 p. 14353.

As to penostatin, the “cytotoxicity (in words)” value was “mild cytotoxic”.
